This note sets out measurements from patent US20260176320A1, “MODULATORS OF G-PROTEIN COUPLED RECEPTORS” (priority 2018, published 2026).

Common to all, as to assay type: cell-based
In one test the target is T1, GIP-R (Homo sapiens, UniProt P48546).
T1 sequence (P48546 22-466): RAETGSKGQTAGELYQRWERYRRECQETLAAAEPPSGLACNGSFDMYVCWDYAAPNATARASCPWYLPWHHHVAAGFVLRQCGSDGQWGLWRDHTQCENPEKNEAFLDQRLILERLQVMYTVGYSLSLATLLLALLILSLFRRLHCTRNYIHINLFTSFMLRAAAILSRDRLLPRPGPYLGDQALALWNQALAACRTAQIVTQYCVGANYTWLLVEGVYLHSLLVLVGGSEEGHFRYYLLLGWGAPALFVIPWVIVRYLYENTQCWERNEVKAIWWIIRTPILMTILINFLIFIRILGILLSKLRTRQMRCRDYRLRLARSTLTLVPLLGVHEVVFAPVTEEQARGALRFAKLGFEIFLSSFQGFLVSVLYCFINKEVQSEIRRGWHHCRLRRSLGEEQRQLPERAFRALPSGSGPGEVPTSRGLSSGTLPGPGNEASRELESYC
Description: HitHunter cAMP assay (GIP-R). The conditions noted are these: cAMP; for Emax: read-out: (Emax) GIP-R. The method, boiled down:
(§1)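 Cells were resuspended in HBSS plus HEPES, IBMX (625 μM) and BSA, then dispensed with antibody at 10,000 per well. Agonists followed as 22-point twofold series, 30 min at room temperature. Antibody reagent and detection steps ran 1 h and overnight in the dark before luminescence.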

The target of test [1] is T2, GLP-1R (Homo sapiens, UniProt P43220). Description: PathHunter β-arrestin assay. In outline:
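Agonist concentration–response (22 points, 2-fold steps, duplicates) was run on cells plated the previous day in BSA-supplemented (0.2%) medium. Stimulation lasted 90 min at 37 °C, followed by a 3 h dark incubation with detection reagent at room temperature and a luminescence read.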

In test [2] the target is T2, GLP-1R. Description: HitHunter cAMP assay (GLP-1R). The note with it: cAMP; for Emax: read-out: (Emax) GLP-1R. The method, boiled down: as §1
Setting [3] is: Table 3, read-out: EC50 GIP-R/nM.
The mark [4] stands for this setting: Table 3A, read-out: EC50 GIP-R/nM.
The mark [5] stands for this setting: PathHunter β-arrestin assay, read-out: β-arrestin activity EC50.
Where [6] appears, read: Table 3, read-out: EC50 GLP-1R/nM.
[7] abbreviates: Table 3A, read-out: EC50 GLP-1R/nM.

Read-outs that look alike come from different tables or passages of the source. Numbered stars: 1 amine (or outer) side, 2 acyl side, 3 side chain; on linkers, the order of the positions; unused ones are H or OH. Square brackets hold non-standard residues; d marks the D form. Side chains are listed from the residue outwards. Peptide text beside a SMILES is read from it. * marks the point of attachment. γGlu = O=C(O)[C@H](CCC(=O)[*:2])N[*:1]; X2 = O=C(CSCC(=O)*)NCCN1C(=O)CSC1=O; Palmitoyl = CCCCCCCCCCCCCCCC(=O)*; Aib = CC(C)(N)C(=O)O

T2 sequence (P43220 24-463): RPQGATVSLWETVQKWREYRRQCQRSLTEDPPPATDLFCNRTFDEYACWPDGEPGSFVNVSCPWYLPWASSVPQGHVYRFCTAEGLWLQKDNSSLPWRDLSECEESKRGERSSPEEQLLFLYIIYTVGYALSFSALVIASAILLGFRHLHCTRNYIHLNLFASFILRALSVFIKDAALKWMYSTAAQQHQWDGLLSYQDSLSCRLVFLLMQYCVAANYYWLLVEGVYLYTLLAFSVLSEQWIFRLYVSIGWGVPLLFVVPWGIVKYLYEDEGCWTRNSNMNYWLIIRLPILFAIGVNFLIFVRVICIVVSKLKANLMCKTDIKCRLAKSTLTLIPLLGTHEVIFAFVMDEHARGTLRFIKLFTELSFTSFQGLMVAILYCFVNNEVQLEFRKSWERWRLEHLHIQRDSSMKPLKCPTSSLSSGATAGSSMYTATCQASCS

Turning to `CCCCCCCCCCCCCCCC(=O)N[C@@H](CCC(=O)NCCCC[C@H](NC(=O)[C@H](CO)NC(=O)[C@@H]1CCCN1C(=O)[C@@H]1CCCN1C(=O)[C@@H]1CCCN1C(=O)[C@H](C)NC(=O)CNC(=O)[C@H](CO)NC(=O)[C@H](CO)NC(=O)[C@@H]1CCCN1C(=O)CNC(=O)CNC(=O)[C@H](C)NC(=O)[C@H](CC(C)C)NC(=O)[C@H](CC(C)C)NC(=O)[C@H](Cc1c[nH]c2ccccc12)NC(=O)[C@H](CC(N)=O)NC(=O)[C@@H](NC(=O)[C@H](Cc1ccccc1)NC(=O)[C@H](CCC(=O)O)NC(=O)C(C)(C)NC(=O)[C@H](C)NC(=O)[C@H](C)NC(=O)[C@H](CCC(N)=O)NC(=O)[C@H](CCCCN)NC(=O)[C@H](CC(=O)O)NC(=O)[C@H](CC(C)C)NC(=O)[C@H](Cc1ccc(O)cc1)NC(=O)[C@@H](NC(=O)[C@H](CO)NC(=O)[C@H](Cc1ccc(O)cc1)NC(=O)[C@H](CC(=O)O)NC(=O)[C@H](CO)NC(=O)[C@@H](NC(=O)[C@H](Cc1ccccc1)NC(=O)[C@@H](NC(=O)CNC(=O)[C@H](CCC(=O)O)NC(=O)CSCC(=O)NCCN1C(=O)CC[C@@H]1CO)[C@@H](C)O)[C@@H](C)O)[C@@H](C)CC)C(C)C)C(N)=O)C(=O)O` [Compound 43], the EC50 was 1 to 10 nM at GIP-R (EC50 GIP-R/nM, Table 3); 1 to 10 nM at GIP-R (EC50 GIP-R/nM, Table 3A); over 1000 nM at GLP-1R [1]; 0.1 to 1 nM on GLP-1R [2] (EC50 GLP-1R/nM, Table 3); 0.1 to 1 nM on GLP-1R [2] (EC50 GLP-1R/nM, Table 3A). Besides, the Emax at GIP-R (Table 3) is 60 to 73%; at GIP-R (Table 3A) it was 60 to 73%; at GLP-1R [2] (Table 3) it was 93 to 97%; on GLP-1R [2] (Table 3A) it was 93 to 97%.

In the case of `CCCCCCCCCCCCCCCC(=O)N[C@@H](CCC(=O)NCCCC[C@H](NC(=O)[C@H](CO)NC(=O)[C@@H]1CCCN1C(=O)[C@@H]1CCCN1C(=O)[C@@H]1CCCN1C(=O)[C@H](C)NC(=O)CNC(=O)[C@H](CO)NC(=O)[C@H](CO)NC(=O)[C@@H]1CCCN1C(=O)CNC(=O)CNC(=O)[C@H](C)NC(=O)[C@H](CC(C)C)NC(=O)[C@H](CC(C)C)NC(=O)[C@H](Cc1c[nH]c2ccccc12)NC(=O)[C@H](CC(N)=O)NC(=O)[C@@H](NC(=O)[C@H](Cc1ccccc1)NC(=O)[C@H](CCC(=O)O)NC(=O)C(C)(C)NC(=O)[C@H](C)NC(=O)[C@H](C)NC(=O)[C@H](CCC(N)=O)NC(=O)[C@H](CCCCN)NC(=O)[C@H](CC(=O)O)NC(=O)[C@H](CC(C)C)NC(=O)[C@H](Cc1ccc(O)cc1)NC(=O)[C@@H](NC(=O)[C@H](CO)NC(=O)[C@H](Cc1ccc(O)cc1)NC(=O)[C@H](CC(=O)O)NC(=O)[C@H](CO)NC(=O)[C@@H](NC(=O)[C@H](Cc1ccccc1)NC(=O)[C@@H](NC(=O)CNC(=O)[C@H](CCC(=O)O)NC(=O)CSCC(=O)NCCN1C(=O)CC[C@H]1CO)[C@@H](C)O)[C@@H](C)O)[C@@H](C)CC)C(C)C)C(N)=O)C(=O)O` [Compound 44], the EC50 on GIP-R (EC50 GIP-R/nM, Table 3) is 1 to 10 nM; on GIP-R (EC50 GIP-R/nM, Table 3A) it was 1 to 10 nM; on GLP-1R [1], over 1000 nM; at GLP-1R [2] (EC50 GLP-1R/nM, Table 3), 0.1 to 1 nM; at GLP-1R [2] (EC50 GLP-1R/nM, Table 3A), 0.1 to 1 nM. Besides, the Emax on GIP-R (Table 3) was 54 to 67%; on GIP-R (Table 3A), 54 to 67%; on GLP-1R [2] (Table 3) it was 97 to 99%; at GLP-1R [2] (Table 3A), 97 to 99%.

As to `CCCCCCCCCCCCCCCC(=O)NCCCC[C@H](NC(=O)[C@H](CO)NC(=O)[C@@H]1CCCN1C(=O)[C@@H]1CCCN1C(=O)[C@@H]1CCCN1C(=O)[C@H](C)NC(=O)CNC(=O)[C@H](CO)NC(=O)[C@H](CO)NC(=O)[C@@H]1CCCN1C(=O)CNC(=O)CNC(=O)[C@H](C)NC(=O)[C@H](CC(C)C)NC(=O)[C@H](CC(C)C)NC(=O)[C@H](Cc1c[nH]c2ccccc12)NC(=O)[C@H](CC(N)=O)NC(=O)[C@@H](NC(=O)[C@H](Cc1ccccc1)NC(=O)[C@H](CCC(=O)O)NC(=O)C(C)(C)NC(=O)[C@H](C)NC(=O)[C@H](C)NC(=O)[C@H](CCC(N)=O)NC(=O)[C@H](CCCCN)NC(=O)[C@H](CC(=O)O)NC(=O)[C@H](CC(C)C)NC(=O)[C@H](Cc1ccc(O)cc1)NC(=O)[C@@H](NC(=O)[C@H](CO)NC(=O)[C@H](Cc1ccc(O)cc1)NC(=O)[C@H](CC(=O)O)NC(=O)[C@H](CO)NC(=O)[C@@H](NC(=O)[C@H](Cc1ccccc1)NC(=O)[C@@H](NC(=O)CNC(=O)[C@H](CCC(=O)O)NC(=O)CSCC(=O)NCCN1C(=O)CSC1=O)[C@@H](C)O)[C@@H](C)O)[C@@H](C)CC)C(C)C)C(N)=O` [Compound 60], the Emax was 37% at GIP-R (Table 3), 37% on GIP-R (Table 3A), 98% at GLP-1R [2] (Table 3) and 98% on GLP-1R [2] (Table 3A). The EC50 on GIP-R (setting [3]) is 1 to 10 nM; at GIP-R (setting [4]), 1 to 10 nM; on GLP-1R [1] (setting [5]) it was over 1000 nM; on GLP-1R [2] (setting [6]), 0.1 to 1 nM; on GLP-1R [2] (setting [7]), 0.1 to 1 nM.

On to `CCCCCCCCCCCCCCCC(=O)N[C@@H](CCC(=O)NCCCC[C@H](NC(=O)[C@H](CO)NC(=O)[C@@H]1CCCN1C(=O)[C@@H]1CCCN1C(=O)[C@@H]1CCCN1C(=O)[C@H](C)NC(=O)CNC(=O)[C@H](CO)NC(=O)[C@H](CO)NC(=O)[C@@H]1CCCN1C(=O)CNC(=O)CNC(=O)[C@H](C)NC(=O)[C@H](CC(C)C)NC(=O)[C@H](CC(C)C)NC(=O)[C@H](Cc1c[nH]c2ccccc12)NC(=O)[C@H](CC(N)=O)NC(=O)[C@@H](NC(=O)[C@H](Cc1ccccc1)NC(=O)[C@H](CCC(=O)O)NC(=O)C(C)(C)NC(=O)[C@H](C)NC(=O)[C@H](C)NC(=O)[C@H](CCC(N)=O)NC(=O)[C@H](CCCCN)NC(=O)[C@H](CC(=O)O)NC(=O)[C@H](CCSC)NC(=O)[C@H](C)NC(=O)[C@@H](NC(=O)[C@H](CO)NC(=O)[C@H](Cc1ccc(O)cc1)NC(=O)[C@H](CC(=O)O)NC(=O)[C@H](CO)NC(=O)[C@@H](NC(=O)[C@H](Cc1ccccc1)NC(=O)[C@@H](NC(=O)CNC(=O)[C@H](CCC(=O)O)NC(=O)CSCC(=O)NCCN1C(=O)CSC1=O)[C@@H](C)O)[C@@H](C)O)[C@@H](C)CC)C(C)C)C(N)=O)C(=O)O` [Compound 71] (X2-EGTFTSDYSIAMDKQAA[Aib]EFVNWLLAGGPSSGAPPPSK([γGlu-Palmitoyl])-NH2), for which the Emax is 77 to 87% at GIP-R (Table 3), 77 to 87% at GIP-R (Table 3A), 102% at GLP-1R [2] (Table 3) and 102% at GLP-1R [2] (Table 3A). The EC50 was 1 to 10 nM on GIP-R (setting [3]); 1 to 10 nM on GIP-R (setting [4]); over 1000 nM on GLP-1R [1] (setting [5]); 0.1 to 10 nM on GLP-1R [2] (setting [6]); 0.1 to 10 nM on GLP-1R [2] (setting [7]).
